This note sets out measurements from patent US8940717B2, “Plant disease controlling composition and method for controlling plant disease” (Sumitomo Chemical Company, Limited, priority 2010, dated 2015).

This assay has as its system gray mold fungus (Botrytis cinerea). The assay can be described thus: Cucumber leaf disk preventive test against gray mold. As to conditions: for pest or weed control at 0.5 ppm / pest or weed control at 5 ppm: Botrytis cinerea, foliar, 96 h, read-out: preventive value (%). It counts as in vivo. The procedure: To a SUS beaker are added 30 parts of the present compound (racemate), 5 parts of Soprophor FLK (polyoxyethylene tristyrylphenyl ether phosphate, produced by Rhodia Nicca Ltd.), 65 parts of ion-exchange water and 150 parts of glass beads (1.0 mm diameter). The mixture is subjected to grinding at a velocity of 1000 rpm with cooling to 10° C., and thereafter the glass beads are separated, so as to obtain a flowable formulation comprising the present compound (racemate).
True leaf of cucumber is punched out with cork borer to 13 mm in diameter to prepare a leaf disk. In 24 well microwell plate that is dispensed with 1 ml 0.8% water agar, the leaf disk is placed such that the upper side of the leaf is in an upward direction. Thereto is added 20 micro liter a testing solution prepared by mixing the flowable formulation of the present compound (racemate) prepared by the above procedure and a commercial wettable powder of fludioxonil or chlorothalonil to a predetermined concentration to treat the leaf disk.
After confirming that the testing medical solution is dried, conidium of gray mold fungus (Botrytis cinerea) is suspended into potato dextrose broth (DIFCO) in a density of about 10^5 conidium/mL and is then subjected to a spray inoculation. After leaving to stand the leaf disk in a growth chamber set up at 15° C. for four days, an onset area on the leaf is measured and then calculated an onset area rate (hereinafter, referred to as an onset area rate of treated group).
The same operation is carried out with 20 micro liter water instead of 20 micro liter a testing medicine solution to calculate an onset area rate (hereinafter, referred to an onset area rate of non-treated group).
A preventive value is calculated from the above onset area rate of treated group and the onset area rate of non-treated group by the following equation: Preventive value (%)=100×(A−B)/A
A: an onset area rate of treated group
B: an onset area rate of non-treated group
The same operations as described in Test Example 1 are carried out with cyflufenamid, diethofencarb, dithianon, fluazinam, flusulfamide, fosetyl-Al, metrafenon, penflufen, phthalide, sedaxane, spiroxamine or tebufloquin, instead of fludioxonil or chlorothalonil, so as to calculate respective preventive values.
Also for comparison, the same operations as described in Test Example 1 are carried out with the exception that the testing medicine solution is substituted with a predetermined concentration of each dimethyl sulfoxide solution of the present compound (racemate), cyflufenamid, diethofencarb, dithianon, fluazinam, flusulfamide, fosetyl-Al, metrafenon, penflufen, phthalide, sedaxane, spiroxamine or tebufloquin, so as to calculate respective preventive values.
For comparison, the same operations as described in Test Example 1 are carried out with the exception that the testing medicine solution is substituted with a predetermined concentration of each dimethyl sulfoxide solution of fludioxonil or chlorothalonil, so as to calculate a preventive value.

Setting [1] is: partner fungicide alone 0.5 ppm, dimethyl sulfoxide solution, cucumber leaf disk, 15° C., four days.
Setting [2] is: partner fungicide alone 5.0 ppm, dimethyl sulfoxide solution, cucumber leaf disk, 15° C., four days.

Each structure is given as a SMILES string. Read-outs that look alike come from different tables or passages of the source.

`O=[N+]([O-])c1cc(C(F)(F)F)c(Cl)c([N+](=O)[O-])c1Nc1ncc(C(F)(F)F)cc1Cl` [fluazinam]: under setting [1], the pest or weed control at 0.5 ppm was found to be 47%. Further, under setting [2], the pest or weed control at 5 ppm was 52%.
In the case of `CCCN(CC)CC1COC2(CCC(C(C)(C)C)CC2)O1` (stereo not shown) [spiroxamine], the pest or weed control at 0.5 ppm under setting [1] was determined as 10%. Moreover, the pest or weed control at 5 ppm under setting [2] turned out to be 15%.
For `N#Cc1c(Cl)c(Cl)c(Cl)c(C#N)c1Cl` [chlorothalonil], the pest or weed control at 0.5 ppm under setting [1] was found to be 15%. Besides, under setting [2], the pest or weed control at 5 ppm came to 45%.
As for `CCOc1ccc(NC(=O)OC(C)C)cc1OCC` [diethofencarb], under setting [1], the pest or weed control at 0.5 ppm is 0%. Moreover, under setting [2], the pest or weed control at 5 ppm was determined as 0%.
With `Cn1cc(C(=O)Nc2ccccc2C2CC2C2CC2)c(C(F)F)n1` (stereo not shown) [sedaxane], the “preventive value (%)” value reads like this: under setting [1], 20%; under setting [2], 40%.
In the case of `CC(=O)Oc1c(C)c(C)nc2c(F)cc(C(C)(C)C)cc12` [tebufloquin], the “preventive value (%)” value runs as follows: under setting [1], 10%; under setting [2], 15%.
Take `CCO[PH](=O)O` [fosetyl-Al]: the “preventive value (%)” value reads like this: under setting [1], 15%; under setting [2], 20%.
In the case of `O=[N+]([O-])c1ccc(NS(=O)(=O)c2ccc(Cl)c(C(F)(F)F)c2)c(Cl)c1` [flusulfamide], the pest or weed control at 0.5 ppm is 15% and the pest or weed control at 5 ppm came out at 20%.
Turning to `N#Cc1sc2c(=O)c3ccccc3c(=O)c=2sc1C#N` [dithianon], the pest or weed control at 0.5 ppm under setting [1] is 15%. Further, under setting [2], the pest or weed control at 5 ppm is 20%.
Take `O=C1OCc2ccccc21` [phthalide]: the pest or weed control at 0.5 ppm under setting [1] turned out to be 10%. For the same molecule, the pest or weed control at 5 ppm under setting [2] stood at 15%.
`Cc1nn(C)c(F)c1C(=O)Nc1ccccc1C(C)CC(C)C` (stereo not shown) [penflufen]: the “preventive value (%)” value is 10% under setting [1] and 15% under setting [2].
The matching figures for `COc1cc(C)c(C(=O)c2c(OC)ccc(Br)c2C)c(OC)c1OC` [metrafenon]: 10% and 15%.
In the case of `N#Cc1c[nH]cc1-c1cccc2c1OC(F)(F)O2` [fludioxonil], the pest or weed control at 0.5 ppm turned out to be 45% and the pest or weed control at 5 ppm was found to be 57%.
Consider `O=C(Cc1ccccc1)N/C(=N\OCC1CC1)c1c(C(F)(F)F)ccc(F)c1F` [cyflufenamid], for which, under setting [1], the pest or weed control at 0.5 ppm was found to be 10%. In addition, the pest or weed control at 5 ppm under setting [2] is 15%.
